target: T1, hCRTH2 (Homo sapiens, UniProt Q9Y5Y4); assay: Radioligand binding assay ([3H]PGD2 competition, HEK-hCRTH2 membranes); details: [3H]PGD2 competition, Table B
T1 construct: expressed in transfected cells; host or cells: HEK (human embryonic kidney) cells expressing hCRTH2; membrane preparation
T1 sequence (Q9Y5Y4 1-395): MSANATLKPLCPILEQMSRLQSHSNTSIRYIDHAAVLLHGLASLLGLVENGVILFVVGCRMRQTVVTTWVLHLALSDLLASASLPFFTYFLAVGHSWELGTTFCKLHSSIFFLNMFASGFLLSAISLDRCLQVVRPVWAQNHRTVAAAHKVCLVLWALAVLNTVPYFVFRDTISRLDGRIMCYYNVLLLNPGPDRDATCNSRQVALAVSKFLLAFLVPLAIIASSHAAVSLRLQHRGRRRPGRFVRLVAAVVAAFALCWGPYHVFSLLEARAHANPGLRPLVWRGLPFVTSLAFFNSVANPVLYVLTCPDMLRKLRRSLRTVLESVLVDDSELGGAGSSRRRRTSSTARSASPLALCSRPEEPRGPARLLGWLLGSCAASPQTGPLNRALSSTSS
Outline: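 Competition binding with 3.0 nM [3H]PGD2 and 8-20 μg HEK-hCRTH2 membrane protein in 50 mM Tris-HCl pH 7.4, 1 mM EDTA, 2 mM MnCl2, 1% Me2SO, 60 min at room temperature. Nonspecific binding defined with 10 μM PGD2; bound radioactivity counted after filtration.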

Structure (SMILES) | Ki [nM]
C[C@H]1CN(c2ccc(Cl)cc2)CCN1C(=O)c1ccc2nc(-c3ccc(Cl)cc3)c(CCCCC(=O)O)nc2c1 [compound 541, (S)-5-(3-(4-chlorophenyl)-7-(4-(4-chlorophenyl)-2-methylpiperazine-1-carbonyl)quinoxalin-2-yl)pentanoic acid] | 2.1 to 20
C[C@H]1CN(c2ccc(Cl)cc2)CCN1C(=O)c1ccc2nc(-c3ccc(F)cc3)c(CCCCC(=O)O)nc2c1 [compound 542, (S)-5-(7-(4-(4-chlorophenyl)-2-methylpiperazine-1-carbonyl)-3-(4-fluorophenyl)quinoxalin-2-yl)pentanoic acid] | 2.1 to 20
O=C(O)Cc1cccc(CCCc2nc3cc(C(=O)N4CCN(c5ccccc5)CC4)ccc3nc2-c2ccc(Cl)cc2)c1 [compound 543, 2-(3-(3-(3-(4-chlorophenyl)-7-(4-phenylpiperazine-1-carbonyl)quinoxalin-2-yl)propyl)phenyl)acetic acid] | 20.1 to 200
CN(Cc1ccc(F)cc1)C(=O)c1ccc2nc(-c3ccc(Cl)cc3)c(CCCc3cccc(CC(=O)O)c3)nc2c1 [compound 544, 2-(3-(3-(3-(4-chlorophenyl)-7-((4-fluorobenzyl) (methyl)carbamoyl)quinoxalin-2-yl)propyl)phenyl)acetic acid] | 20.1 to 200
C[C@@H](NC(=O)c1ccc2nc(-c3ccc(Cl)cc3)c(CCCc3cccc(CC(=O)O)c3)nc2c1)c1ccc(F)cc1 [compound 545, (R)-2-(3-(3-(3-(4-chlorophenyl)-7-((1-(4-fluorophenyl)ethyl)carbamoyl)quinoxalin-2-yl)propyl)phenyl)acetic acid] | 201 to 700
O=C(O)Cc1cccc(CCCc2nc3cc(C(=O)NCc4ccc(Cl)cc4)ccc3nc2-c2ccc(Cl)cc2)c1 [compound 546, 2-(3-(3-(7-((4-chlorobenzyl)carbamoyl)-3-(4-chlorophenyl)quinoxalin-2-yl)propyl)phenyl) acetic acid] | 20.1 to 200
O=C(N[C@@H]1CCOc2ccccc21)c1ccc2nc(-c3ccc(F)cc3)c(CCCC(F)(F)C(=O)O)nc2c1 [compound 547] | 20.1 to 200
O=C(N[C@H]1CCOc2ccccc21)c1ccc2nc(-c3ccc(F)cc3)c(CCCC(F)(F)C(=O)O)nc2c1 [compound 548, (S)-5-(7-(chroman-4-ylcarbamoyl)-3-(4-fluorophenyl)quinoxalin-2-yl)-2,2-difluoro-pentanoic acid] | 201 to 700
C[C@H]1CN(c2ccccc2)CCN1C(=O)c1ccc2nc(-c3ccccc3)c(CCCCC(=O)O)nc2c1 [compound 549, (S)-5-(7-(2-methyl-4-phenylpiperazine-l-carbonyl)-3-phenylquinoxalin-2-yl)pentanoic acid] | 2.1 to 20
C[C@@H]1CN(c2ccc(Cl)cc2)CCN1C(=O)c1ccc2nc(-c3ccccc3)c(CCCCC(=O)O)nc2c1 [compound 550, (R)-5-(7-(4-(4-chlorophenyl)-2-methylpiperazine-1-carbonyl)-3-phenyl-quinoxa1in-2-yl)pentanoic acid] | 2.1 to 20
C[C@H]1CN(c2ccc(Cl)cc2)CCN1C(=O)c1ccc2nc(-c3ccccc3)c(CCCCC(=O)O)nc2c1 [compound 551, (S)-5-(7-(4-(4-chlorophenyl)-2-methylpiperazine-1-carbonyl)-3-phenyl-quinoxalin-2-yl)pentanoic acid] | 2.1 to 20
O=C(O)CCCCc1nc2cc(C(=O)N3CCN(c4ncccn4)CC3)ccc2nc1-c1ccc(Cl)cc1 [compound 552, 5-(3-(4-chlorophenyl)-7-(4-(pyrimidin-2-yl)piperazine-1-carbonyl)quinoxalin-2-yl)pentanoic acid] | 2.1 to 20
O=C(O)CCCCc1nc2cc(C(=O)N3CCN(c4ccccc4)C(=O)C3)ccc2nc1-c1ccc(Cl)cc1 [compound 553, 5-(3-(4-chlorophenyl)-7-(3-oxo-4-phenylpiperazine-1-carbonyl)quinoxalin-2-yl)pentanoic acid] | 2.1 to 20
O=C(O)CCCCc1nc2cc(C(=O)N3CCN(c4ccccn4)CC3)ccc2nc1-c1ccc(Cl)cc1 [compound 554, 5-(3-(4-chlorophenyl)-7-(4-(pyridin-2-yl)piperazine-1-carbonyl)quinoxalin-2-yl)pentanoic acid] | 2.1 to 20
O=C(O)CCCCc1nc2cc(C(=O)N3CCN(Cc4ccccc4)CC3)ccc2nc1-c1ccc(Cl)cc1 [compound 555, 5-(7-(4-benzylpiperazine-1-carbonyl)-3-(4-chlorophenyl)quinoxalin-2-yl)pentanoic acid] | 2.1 to 20

Now from value to molecule:

Ki [nM] | Structure (SMILES)
2.1 to 20 | CC1(C)CCC(NC(=O)c2ccc3nc(-c4ccc(Cl)cc4)c(CCCCC(=O)O)nc3c2)c2ccccc21 (stereo not shown) [compound 556]
2.1 to 20 | O=C(O)CCCCc1nc2cc(C(=O)N3CCc4cc(F)ccc4C3)ccc2nc1-c1ccc(Cl)cc1 [compound 557, 5-(3-(4-chlorophenyl)-7-(6-fluoro-1,2,3,4-tetrahydroisoquinoline-2-carbonyl)quinoxalin-2-yl)pentanoic acid]
2.1 to 20 | CC1(C)c2ccc(F)cc2CN1C(=O)c1ccc2nc(-c3ccc(Cl)cc3)c(CCCCC(=O)O)nc2c1 [compound 558, 5-(3-(4-chlorophenyl)-7-(5-fluoro-1,1-dimethylisoindoline-2-carbonyl)quinoxalin-2-yl)pentanoic acid]
0.1 to 2 | O=C(O)CCCCc1nc2cc(C(=O)N3CC[C@H](c4ccc(F)cc4)C3)ccc2nc1-c1ccc(Cl)cc1 [compound 559, (R)-5-(3-(4-chlorophenyl)-7-(3-(4-fluorophenyl)pyrrolidine-1-carbonyl)quinoxalin-2-yl)pentanoic acid]
0.1 to 2 | O=C(O)CCCCc1nc2cc(C(=O)N3CC[C@@H](c4ccc(F)cc4)C3)ccc2nc1-c1ccc(Cl)cc1 [compound 560, (S)-5-(3-(4-chlorophenyl)-7-(3-(4-fluorophenyl)pyrrolidine-1-carbonyl)quinoxalin-2-yl)pentanoic acid]
0.1 to 2 | O=C(O)CCCCc1nc2cc(C(=O)NC3CCCOc4ccccc43)ccc2nc1-c1ccc(Cl)cc1 (stereo not shown) [compound 561, 5-(3-(4-chlorophenyl)-7-((2,3,4,5-tetrahydrobenzo[b]oxepin-5-yl)carbamoyl)quinoxalin-2-yl)pentanoic acid]
0.1 to 2 | O=C(O)CCCCc1nc2cc(C(=O)N[C@H]3COc4ccccc43)ccc2nc1-c1ccc(Cl)cc1 [compound 562, (R)-5-(3-(4-chlorophenyl)-7-((2,3-dihydrobenzofuran-3-yl)carbamoyl)quinoxalin-2-yl)pentanoic acid]
0.1 to 2 | O=C(O)CCCCc1nc2cc(C(=O)N[C@@H]3COc4ccccc43)ccc2nc1-c1ccc(Cl)cc1 [compound 563, (S)-5-(3-(4-chlorophenyl)-7-((2,3-dihydrobenzofuran-3-yl)carbamoyl)quinoxalin-2-yl)pentanoic acid]
2.1 to 20 | CC1(C)CC(NC(=O)c2ccc3nc(-c4ccc(Cl)cc4)c(CCCCC(=O)O)nc3c2)c2ccccc2O1 (stereo not shown) [compound 564, 5-(3-(4-chlorophenyl)-7-((2,2-dimethylchroman-4-yl)carbamoyl)quinoxalin-2-yl)pentanoic acid]
0.1 to 2 | O=C(O)CCCCc1nc2cc(C(=O)N3CCC4(CCCc5ccccc54)C3)ccc2nc1-c1ccc(Cl)cc1 (stereo not shown) [compound 565, 5-(3-(4-chlorophenyl)-7-(3,4-dihydro-2H-spiro [naphthalene-1,3′-pyrrolidin]-1′-ylcarbonyl)quinoxalin-2-yl)pentanoic acid]
